pKi: −log10 of the molar value. The source made the active and inactive calls. The calls are words filed in the database; no cut-off is given here.
Tests used:
[1] = target: Serine/threonine-protein kinase ATR (Homo sapiens, UniProt Q13535); assay: Binding affinity to ATR (unknown origin) assessed as inhibition constant
PANC-1 [2] = assay: Antiproliferative activity against human PANC-1 cells assessed as […] cell proliferation at 10 uM incubated for 48 hrs by WST-1 assay relative to control; format: functional
SAOS-2 [3] = assay: Antiproliferative activity against human SAOS-2 cells assessed as […] cell proliferation at 10 uM incubated for 48 hrs by WST-1 assay relative to control; format: functional
A2780 [4] = assay: Antiproliferative activity against human A2780 cells assessed as […] cell proliferation at 10 uM incubated for 48 hrs in presence of 2 uM of CDDP by WST-1 assay relative to control; format: functional
HT-29 [5] = assay: Antiproliferative activity against human HT-29 cells assessed as […] cell proliferation at 10 uM incubated for 48 hrs by WST-1 assay relative to control; format: functional
1321N1 [6] = assay: Cytotoxicity against human 1321N1 cells assessed as reduction in cell viability at 15 uM incubated for 48 hrs by MTT assay; format: functional, cell-based
ATR/ATRIP (Homo sapiens) = ATR/ATRIP (Homo sapiens) (UniProt Q13535+Q8WXE1); assay: Inhibition of human ATR/ATRIP assessed as residual activity at 10 uM relative to control; format: protein-complex assay
A549 [7] = assay: Antiproliferative activity against human A549 cells assessed as […] cell proliferation at 10 uM incubated for 48 hrs by WST-1 assay relative to control; format: functional
PANC-1 [8] = assay: Antiproliferative activity against human PANC-1 cells assessed as […] cell proliferation at 10 uM incubated for 48 hrs in presence of 15 uM of CDDP by WST-1 assay relative to control; format: functional
GBM = assay: Cytotoxicity against patient-derived human GBM cells assessed as reduction in cell viability at 15 uM incubated for 48 hrs by MTT assay; format: functional
[9] = target: High affinity nerve growth factor receptor (Homo sapiens) (UniProt P04629); assay: Inhibition of human TrkA assessed as residual activity at 10 uM relative to control
[10] = target: Vascular endothelial growth factor receptor 1 (Homo sapiens) (UniProt P17948); assay: Inhibition of human FLT1 assessed as residual activity at 10 uM relative to control
SAOS-2 [11] = assay: Antiproliferative activity against human SAOS-2 cells assessed as […] cell proliferation at 10 uM incubated for 48 hrs in presence of 15 uM of CDDP by WST-1 assay relative to control; format: functional
HeLa [12] = assay: Antiproliferative activity against human HeLa cells assessed as […] cell proliferation at 10 uM incubated for 48 hrs by WST-1 assay relative to control; format: functional
A2780 [13] = assay: Antiproliferative activity against human A2780 cells assessed as […] cell proliferation at 10 uM incubated for 48 hrs by WST-1 assay relative to control; format: functional
[14] = target: Fibroblast growth factor receptor 2 (Homo sapiens) (UniProt P21802); assay: Inhibition of human FGFR2 assessed as residual activity at 10 uM relative to control
[15] = target: T1, Aurora kinase A (Homo sapiens) (UniProt O14965); assay: Inhibition of human Aurora-A assessed as residual activity at 10 uM relative to control
T1 sequence (whole entry): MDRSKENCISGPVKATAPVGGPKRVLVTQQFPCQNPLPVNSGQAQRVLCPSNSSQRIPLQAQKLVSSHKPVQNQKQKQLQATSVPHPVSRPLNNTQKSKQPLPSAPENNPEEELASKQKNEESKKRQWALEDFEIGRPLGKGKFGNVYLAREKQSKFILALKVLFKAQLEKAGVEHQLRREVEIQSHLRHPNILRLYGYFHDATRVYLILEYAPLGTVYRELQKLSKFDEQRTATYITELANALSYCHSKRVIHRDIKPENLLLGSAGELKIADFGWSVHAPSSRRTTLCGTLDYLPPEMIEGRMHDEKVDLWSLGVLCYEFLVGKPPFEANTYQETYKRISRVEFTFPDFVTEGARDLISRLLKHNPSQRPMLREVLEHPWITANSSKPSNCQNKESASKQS

[16] = target: Proto-oncogene tyrosine-protein kinase receptor Ret (Homo sapiens) (UniProt P07949); assay: Inhibition of human Ret assessed as residual activity at 10 uM relative to control
[17] = target: Protein kinase C alpha type (Homo sapiens) (UniProt P17252); assay: Inhibition of human PKCalpha assessed as residual activity at 10 uM relative to control
[18] = target: Vascular endothelial growth factor receptor 2 (Homo sapiens) (UniProt P35968); assay: Inhibition of human KDR assessed as residual activity at 10 uM relative to control
1321N1 [19] = assay: Chemo-sensitizing activity against human 1321N1 cells at 15 uM incubated for 48 hrs in presence of TMZ by MTT assay; format: functional, cell-based
[20] = target: Fibroblast growth factor receptor 3 (Homo sapiens) (UniProt P22607); assay: Inhibition of human FGFR3 assessed as residual activity at 10 uM relative to control
Jurkat [21] = assay: Antiproliferative activity against human Jurkat cells assessed as […] cell proliferation at 10 uM incubated for 48 hrs by WST-1 assay relative to control; format: functional
HT-29 [22] = assay: Antiproliferative activity against human HT-29 cells assessed as […] cell proliferation at 10 uM incubated for 48 hrs in presence of 15 uM of CDDP by WST-1 assay relative to control; format: functional
[23] = target: T2, Cytoplasmic tyrosine-protein kinase BMX (Homo sapiens) (UniProt P51813); assay: Inhibition of human Bmx assessed as residual activity at 10 uM relative to control
T2 sequence (whole entry): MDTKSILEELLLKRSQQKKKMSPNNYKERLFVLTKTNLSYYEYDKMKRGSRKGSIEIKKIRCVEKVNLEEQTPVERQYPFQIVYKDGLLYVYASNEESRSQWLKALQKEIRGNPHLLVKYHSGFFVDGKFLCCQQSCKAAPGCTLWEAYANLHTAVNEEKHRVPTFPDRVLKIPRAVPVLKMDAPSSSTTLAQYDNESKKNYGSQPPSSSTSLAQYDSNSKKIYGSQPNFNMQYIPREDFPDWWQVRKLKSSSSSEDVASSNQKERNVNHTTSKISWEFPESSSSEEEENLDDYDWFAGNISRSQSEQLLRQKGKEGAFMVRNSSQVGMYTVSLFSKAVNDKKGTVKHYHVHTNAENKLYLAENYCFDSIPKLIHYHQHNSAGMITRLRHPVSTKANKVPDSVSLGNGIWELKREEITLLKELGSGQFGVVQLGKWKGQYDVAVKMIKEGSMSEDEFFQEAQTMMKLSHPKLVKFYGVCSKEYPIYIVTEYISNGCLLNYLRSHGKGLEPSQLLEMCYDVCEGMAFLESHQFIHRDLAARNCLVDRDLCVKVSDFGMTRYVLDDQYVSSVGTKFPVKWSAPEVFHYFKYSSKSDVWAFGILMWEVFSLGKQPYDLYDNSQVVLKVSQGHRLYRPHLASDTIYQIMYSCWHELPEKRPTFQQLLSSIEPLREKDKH

MOLT-4 [24] = assay: Antiproliferative activity against human MOLT-4 cells assessed as […] cell proliferation at 10 uM incubated for 48 hrs in presence of 2 uM of CDDP by WST-1 assay relative to control; format: functional
MCF7 [25] = assay: Antiproliferative activity against human MCF7 cells assessed as […] cell proliferation at 10 uM incubated for 48 hrs in presence of 10 uM of CDDP by WST-1 assay relative to control; format: functional
MOLT-4 [26] = assay: Antiproliferative activity against human MOLT-4 cells assessed as […] cell proliferation at 10 uM incubated for 48 hrs by WST-1 assay relative to control; format: functional
[27] = tested on: Mast/stem cell growth factor receptor Kit (Homo sapiens), P10721 [V560G]; assay: Inhibition of human cKit V560G mutant assessed as residual activity at 10 uM relative to control
HeLa [28] = assay: Antiproliferative activity against human HeLa cells assessed as […] cell proliferation at 10 uM incubated for 48 hrs in presence of 15 uM of CDDP by WST-1 assay relative to control; format: functional
MCF7 [29] = assay: Antiproliferative activity against human MCF7 cells assessed as […] cell proliferation at 10 uM incubated for 48 hrs by WST-1 assay relative to control; format: functional
[30] = target: Vascular endothelial growth factor receptor 3 (Homo sapiens) (UniProt P35916); assay: Inhibition of human FLT4 assessed as residual activity at 10 uM relative to control
Jurkat [31] = assay: Antiproliferative activity against human Jurkat cells assessed as […] cell proliferation at 10 uM incubated for 48 hrs in presence of 2 uM of CDDP by WST-1 assay relative to control; format: functional
[32] = target: Angiopoietin-1 receptor (Homo sapiens) (UniProt Q02763); assay: Inhibition of human Tie2 assessed as residual activity at 10 uM relative to control
A549 [33] = assay: Antiproliferative activity against human A549 cells assessed as […] cell proliferation at 10 uM incubated for 48 hrs in presence of 15 uM of CDDP by WST-1 assay relative to control; format: functional
[34] = Chemo-sensitizing activity against human 1321N1 cells at 15 uM incubated for 48 hrs in presence of TMZ by MTT assay relative to control; format: functional

Sequence of Vascular endothelial growth factor receptor 1 (Homo sapiens) (P17948 whole entry): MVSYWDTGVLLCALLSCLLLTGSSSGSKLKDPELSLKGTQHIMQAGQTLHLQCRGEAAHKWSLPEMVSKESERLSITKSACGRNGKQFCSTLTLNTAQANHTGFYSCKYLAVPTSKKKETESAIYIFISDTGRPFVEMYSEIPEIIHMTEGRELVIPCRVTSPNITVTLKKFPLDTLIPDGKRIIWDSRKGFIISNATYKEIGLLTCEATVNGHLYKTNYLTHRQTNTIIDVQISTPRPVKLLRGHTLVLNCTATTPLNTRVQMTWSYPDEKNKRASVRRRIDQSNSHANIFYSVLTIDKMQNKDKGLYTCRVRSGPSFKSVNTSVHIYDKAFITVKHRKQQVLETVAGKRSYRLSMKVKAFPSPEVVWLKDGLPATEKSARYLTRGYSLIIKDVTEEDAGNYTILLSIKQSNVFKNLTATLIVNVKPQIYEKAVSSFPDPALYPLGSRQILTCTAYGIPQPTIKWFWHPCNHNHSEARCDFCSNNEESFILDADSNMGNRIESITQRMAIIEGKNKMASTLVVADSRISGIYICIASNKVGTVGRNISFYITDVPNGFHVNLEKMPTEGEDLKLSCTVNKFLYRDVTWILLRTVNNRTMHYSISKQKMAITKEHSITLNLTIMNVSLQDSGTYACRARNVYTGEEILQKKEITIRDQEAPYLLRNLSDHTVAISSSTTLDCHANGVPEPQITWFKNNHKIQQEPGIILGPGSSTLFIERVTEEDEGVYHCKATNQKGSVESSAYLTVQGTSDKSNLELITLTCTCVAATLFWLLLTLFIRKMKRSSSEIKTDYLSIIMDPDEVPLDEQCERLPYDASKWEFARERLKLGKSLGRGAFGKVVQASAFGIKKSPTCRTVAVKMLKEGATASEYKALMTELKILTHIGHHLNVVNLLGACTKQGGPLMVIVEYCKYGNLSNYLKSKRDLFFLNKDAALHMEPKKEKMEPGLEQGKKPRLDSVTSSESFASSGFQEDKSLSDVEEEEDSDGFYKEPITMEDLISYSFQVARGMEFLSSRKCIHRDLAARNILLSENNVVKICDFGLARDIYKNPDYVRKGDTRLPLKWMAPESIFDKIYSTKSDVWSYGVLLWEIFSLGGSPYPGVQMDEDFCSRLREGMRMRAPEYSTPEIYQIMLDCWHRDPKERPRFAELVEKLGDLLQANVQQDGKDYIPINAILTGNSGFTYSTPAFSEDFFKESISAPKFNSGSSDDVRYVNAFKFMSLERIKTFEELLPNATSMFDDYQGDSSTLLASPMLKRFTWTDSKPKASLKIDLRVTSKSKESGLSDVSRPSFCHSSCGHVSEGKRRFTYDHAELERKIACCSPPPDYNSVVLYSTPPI
Sequence of Mast/stem cell growth factor receptor Kit (Homo sapiens), P10721 [V560G] (P10721 whole entry V560G): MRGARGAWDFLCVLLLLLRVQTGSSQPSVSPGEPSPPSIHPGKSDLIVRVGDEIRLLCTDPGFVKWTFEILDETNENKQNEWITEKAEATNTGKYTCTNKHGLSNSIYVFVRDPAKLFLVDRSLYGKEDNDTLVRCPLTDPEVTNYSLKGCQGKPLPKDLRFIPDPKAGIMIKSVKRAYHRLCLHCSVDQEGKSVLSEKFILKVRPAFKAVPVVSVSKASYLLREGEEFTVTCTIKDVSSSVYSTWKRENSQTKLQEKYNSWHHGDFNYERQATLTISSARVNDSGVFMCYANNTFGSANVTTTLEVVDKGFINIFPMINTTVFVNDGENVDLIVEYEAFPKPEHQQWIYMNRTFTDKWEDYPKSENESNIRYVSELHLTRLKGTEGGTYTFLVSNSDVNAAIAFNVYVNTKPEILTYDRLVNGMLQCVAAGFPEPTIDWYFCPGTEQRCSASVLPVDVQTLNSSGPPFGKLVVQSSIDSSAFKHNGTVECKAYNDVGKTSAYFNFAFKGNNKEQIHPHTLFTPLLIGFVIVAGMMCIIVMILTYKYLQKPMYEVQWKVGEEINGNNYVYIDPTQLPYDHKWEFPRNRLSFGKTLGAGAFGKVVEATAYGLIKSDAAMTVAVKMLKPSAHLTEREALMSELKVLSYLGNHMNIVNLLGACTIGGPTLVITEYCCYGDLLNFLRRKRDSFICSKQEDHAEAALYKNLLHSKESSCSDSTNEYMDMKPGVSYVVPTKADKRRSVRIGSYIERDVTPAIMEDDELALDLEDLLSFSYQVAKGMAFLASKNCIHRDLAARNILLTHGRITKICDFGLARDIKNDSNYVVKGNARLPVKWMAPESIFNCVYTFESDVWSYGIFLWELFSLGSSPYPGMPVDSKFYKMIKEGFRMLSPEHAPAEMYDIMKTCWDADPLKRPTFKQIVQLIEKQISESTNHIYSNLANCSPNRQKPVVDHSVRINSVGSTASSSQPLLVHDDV
Sequence of Proto-oncogene tyrosine-protein kinase receptor Ret (Homo sapiens) (P07949 whole entry): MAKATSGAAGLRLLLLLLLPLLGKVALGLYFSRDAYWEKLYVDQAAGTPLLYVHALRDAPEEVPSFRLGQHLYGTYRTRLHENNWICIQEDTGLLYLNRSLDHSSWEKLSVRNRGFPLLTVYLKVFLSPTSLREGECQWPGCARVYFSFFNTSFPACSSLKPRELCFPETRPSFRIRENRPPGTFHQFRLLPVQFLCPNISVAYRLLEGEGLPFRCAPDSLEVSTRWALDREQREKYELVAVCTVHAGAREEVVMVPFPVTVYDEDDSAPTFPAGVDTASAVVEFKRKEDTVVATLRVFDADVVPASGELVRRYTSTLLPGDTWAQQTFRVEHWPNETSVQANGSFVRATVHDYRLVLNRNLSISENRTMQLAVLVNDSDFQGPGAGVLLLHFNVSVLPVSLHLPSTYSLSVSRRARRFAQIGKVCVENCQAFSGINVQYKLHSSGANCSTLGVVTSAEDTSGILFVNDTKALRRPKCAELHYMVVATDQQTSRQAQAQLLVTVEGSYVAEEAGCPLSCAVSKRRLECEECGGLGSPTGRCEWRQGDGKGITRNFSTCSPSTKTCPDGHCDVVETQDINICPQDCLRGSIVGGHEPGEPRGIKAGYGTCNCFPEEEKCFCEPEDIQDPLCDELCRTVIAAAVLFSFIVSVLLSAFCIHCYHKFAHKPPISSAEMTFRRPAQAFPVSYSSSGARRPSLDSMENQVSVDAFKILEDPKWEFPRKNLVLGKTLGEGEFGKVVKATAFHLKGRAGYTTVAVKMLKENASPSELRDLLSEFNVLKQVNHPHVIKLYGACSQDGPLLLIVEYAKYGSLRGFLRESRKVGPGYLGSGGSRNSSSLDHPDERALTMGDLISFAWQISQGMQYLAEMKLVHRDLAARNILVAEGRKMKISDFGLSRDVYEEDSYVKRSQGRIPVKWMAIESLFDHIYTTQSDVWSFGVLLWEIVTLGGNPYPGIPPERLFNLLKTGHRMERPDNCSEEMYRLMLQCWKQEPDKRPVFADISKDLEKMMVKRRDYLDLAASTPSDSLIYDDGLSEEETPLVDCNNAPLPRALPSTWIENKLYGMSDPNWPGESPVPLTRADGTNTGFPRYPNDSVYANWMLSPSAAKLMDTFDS
Sequence of Angiopoietin-1 receptor (Homo sapiens) (Q02763 whole entry): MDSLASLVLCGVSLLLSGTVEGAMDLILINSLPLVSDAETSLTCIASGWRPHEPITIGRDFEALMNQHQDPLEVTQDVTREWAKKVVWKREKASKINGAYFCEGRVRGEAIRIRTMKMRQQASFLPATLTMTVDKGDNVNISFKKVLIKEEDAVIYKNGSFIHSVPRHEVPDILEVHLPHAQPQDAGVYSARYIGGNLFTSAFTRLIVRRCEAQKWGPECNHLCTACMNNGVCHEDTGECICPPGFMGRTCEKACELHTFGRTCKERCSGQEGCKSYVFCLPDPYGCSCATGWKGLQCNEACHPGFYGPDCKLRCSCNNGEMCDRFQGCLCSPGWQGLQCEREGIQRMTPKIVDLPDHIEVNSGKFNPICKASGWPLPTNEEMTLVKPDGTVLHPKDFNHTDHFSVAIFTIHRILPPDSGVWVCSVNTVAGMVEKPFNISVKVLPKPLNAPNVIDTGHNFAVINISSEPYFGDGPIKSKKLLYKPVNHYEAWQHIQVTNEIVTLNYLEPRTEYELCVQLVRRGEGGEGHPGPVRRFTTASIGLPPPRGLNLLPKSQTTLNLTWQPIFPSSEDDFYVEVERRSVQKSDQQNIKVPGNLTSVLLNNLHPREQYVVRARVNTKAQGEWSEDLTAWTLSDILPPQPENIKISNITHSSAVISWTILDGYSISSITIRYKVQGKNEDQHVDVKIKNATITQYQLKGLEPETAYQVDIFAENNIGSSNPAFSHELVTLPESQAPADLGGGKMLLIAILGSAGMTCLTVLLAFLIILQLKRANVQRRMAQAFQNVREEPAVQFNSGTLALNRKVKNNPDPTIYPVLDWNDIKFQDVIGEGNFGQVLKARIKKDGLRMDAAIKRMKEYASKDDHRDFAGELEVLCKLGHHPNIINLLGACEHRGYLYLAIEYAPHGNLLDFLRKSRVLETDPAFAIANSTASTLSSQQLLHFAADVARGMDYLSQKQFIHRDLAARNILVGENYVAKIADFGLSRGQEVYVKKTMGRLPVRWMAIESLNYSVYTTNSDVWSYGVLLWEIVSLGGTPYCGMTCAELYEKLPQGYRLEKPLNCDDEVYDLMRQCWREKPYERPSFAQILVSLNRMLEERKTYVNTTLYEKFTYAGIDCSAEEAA

Row | Structure (SMILES) | Activity (PANC-1 [2]) [%] | Activity (SAOS-2 [3]) [%] | Activity (A2780 [4]) [%] | Cell viability relative to control (HT-29 [5]) [%] | Activity (1321N1 [6]) | Activity (A549 [7]) [%] | Activity (PANC-1 [8]) [%] | Activity (GBM) | Activity (SAOS-2 [11]) [%] | Activity (HeLa [12]) [%] | Activity (A2780 [13]) [%] | Activity (Jurkat [21]) [%] | Activity (HT-29 [22]) [%] | Activity (MOLT-4 [24]) [%] | Activity (MCF7 [25]) [%] | Activity (MOLT-4 [26]) [%] | Activity (HeLa [28]) [%] | Activity (MCF7 [29]) [%] | Activity (Jurkat [31]) [%] | Activity (A549 [33]) [%] | also measured
1 | Nc1nn2cc(F)cnc2c1C(=O)Nc1cncc(F)c1N1CCC(C(=O)N2CCN(C3COC3)CC2)CC1 [M4344] |  |  |  |  |  |  |  |  |  |  |  |  |  |  |  |  |  |  |  |  | pKi [1]: > 9.70
2 | CCN1CCN(C2CCN(Cc3c[nH]c4ncc(-c5ccc(S(=O)(=O)C(C)C)cc5)cc34)CC2)CC1 | 87 | 87 | 46 | 87 | Active | 87 | 46 | Active | 46 | 87 | 87 | 87 | 46 | 46 | 46 | 87 | 46 | 87 | 46 | 46 | Activity (ATR/ATRIP (Homo sapiens)): 96%; Activity [9]: 82%; Activity [10]: 81%; Activity [14]: 108%; Activity [15]: 86%; Activity [16]: 129%; Activity [17]: 88%; Activity [18]: 91%; Activity (1321N1 [19]): Active; Activity [20]: 92%; Activity [23]: 97%; Activity [27]: 83%; Activity [30]: 80%; Activity [32]: 84%
3 | CC(C)S(=O)(=O)c1ccc(-c2cnc3[nH]c(C(=O)N4CCc5ccccc5C4)cc3c2)cc1 | 71 | 71 | 57 | 71 | Active | 71 | 57 | 50% | 57 | 71 | 71 | 71 | 57 | 57 | 57 | 71 | 57 | 71 | 57 | 57 | Activity (1321N1 [19]): Active
4 | CC(C)S(=O)(=O)c1ccc(-c2cnc3[nH]nc(C(=O)N4CCC(c5ccccc5)CC4)c3c2)cc1 | 79 | 79 | 49 | 79 | Active | 79 | 49 | 50% | 49 | 79 | 79 | 79 | 49 | 49 | 49 | 79 | 49 | 79 | 49 | 49 | Activity (ATR/ATRIP (Homo sapiens)): 59%; Activity [9]: 108%; Activity [10]: 61%; Activity [14]: 105%; Activity [15]: 80%; Activity [16]: 77%; Activity [17]: 59%; Activity [18]: 73%; Activity (1321N1 [19]): Active; Activity [20]: 90%; Activity [23]: 98%; Activity [27]: 89%; Activity [30]: 39%; Activity [32]: 70%
5 | CC(C)S(=O)(=O)c1ccc(-c2cnc3[nH]cc(CN4CCC(c5ccccc5)CC4)c3c2)cc1 | 77 | 77 | 46 | 77 | Active | 77 | 46 | Active | 46 | 77 | 77 | 77 | 46 | 46 | 46 | 77 | 46 | 77 | 46 | 46 | Activity [34]: 100%
6 | CC(C)S(=O)(=O)c1ccc(-c2cnc3[nH]cc(C(=O)N4CCC(c5ccccc5)CC4)c3c2)cc1 | 30 | 30 | 28 | 30 | Active | 30 | 28 | Active | 28 | 30 | 30 | 30 | 28 | 28 | 28 | 30 | 28 | 30 | 28 | 28 | Activity (ATR/ATRIP (Homo sapiens)): 91%; Activity [9]: 42%; Activity [10]: 49%; Activity [14]: 57%; Activity [15]: 45%; Activity [16]: 16%; Activity [17]: 90%; Activity [18]: 52%; Activity [20]: 60%; Activity [23]: 56%; Activity [27]: 30%; Activity [30]: 10%; Activity [32]: 57%

Source: ChEMBL document CHEMBL5113478, “7-Azaindole, 2,7-diazaindole, and 1H-pyrazole as core structures for novel anticancer agents with potential chemosensitizing properties” (Eur J Med Chem, 2022)
